Patent publication US20260062422A1 (Halda Therapeutics OpCo, Inc., priority 2022, published 2026)

Tests used:
[1] = system: T-Rex 293 cell line SC3 cells having increased expression of androgen receptor protein due to exposure to doxycycline; test: Cellular growth inhibition, T-Rex 293 SC3 cells with doxycycline (androgen receptor induced), CellTiter-Glo; type: cell-based; details: 72 h, T-Rex 293 SC3 cells with 10 ng/mL doxycycline (increased androgen receptor expression)
Outline: (§1)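 GI50 came from a four-parameter fit of CellTiter-Glo 2.0 luminescence after 72 h compound exposure (0.5% DMSO, 37 °C), dosing 24 h post-seeding. SC3 clone cells (2500/well), transfected with wild-type androgen receptor, grew in charcoal-stripped serum medium lacking phenol red, induced with 10 ng/mL doxycycline or left uninduced.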

[2] = system: T-Rex 293 cell line SC3 cells lacking increased expression of androgen receptor protein; test: Cellular growth inhibition, T-Rex 293 SC3 cells without doxycycline, CellTiter-Glo; type: cell-based; details: 72 h, T-Rex 293 SC3 cells not exposed to doxycycline, CellTiter-Glo 2.0
Outline: as §1

[3] = system: T47D cells; test: Cellular growth inhibition assay for T47D cells, CellTiter-Glo; type: cell-based, human; details: Homo sapiens, T47D, 72 h, 72 hours treatment, CellTiter-Glo 2.0 cell viability
Outline: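 Luminescence from CellTiter-Glo 2.0 after 72 h of compound exposure gives the viability signal. Cells grew in insulin-supplemented (0.2 units/mL) DMEM with 10% FBS and were treated one day after seeding at 0.5% DMSO. GI50 values come from four-parameter nonlinear regression.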

| Structure (SMILES) | GI50 [1] [nM] | GI50 [2] [nM] | GI50 [3] [nM] |
| --- | --- | --- | --- |
| Cc1sc2c(c1C)C(c1ccc(CCC3CC4(CCCN(c5ncc(C(=O)N[C@H]6C(C)(C)[C@H](Oc7ccc(C#N)c(Cl)c7)C6(C)C)cn5)C4)C3)cc1)=N[C@@H](Cc1ncco1)c1nnc(C)n1-2 [Compound I-241] | < 500 | < 500 | < 500 |
| CCNC(=O)C[C@@H]1N=C(c2ccc(N3CCC(CN4CC(Oc5ncc(C(=O)N[C@H]6C(C)(C)[C@H](Oc7ccc(C#N)c(Cl)c7)C6(C)C)cn5)C4)CC3)cc2)c2c(sc(C)c2C)-n2c(C)nnc21 [Compound I-124] | < 500 | 1500 to 3000 | 500 to 1500 |
| CCNC(=O)C[C@@H]1N=C(c2ccc(N(C)C3CN(CC4CCN(c5ncc(C(=O)N[C@H]6C(C)(C)[C@H](Oc7ccc(C#N)c(Cl)c7)C6(C)C)cn5)CC4)C3)cc2)c2c(sc(C)c2C)-n2c(C)nnc21 [Compound I-119] | < 500 | 500 to 1500 | < 500 |
| Cc1sc2c(c1C)C(c1ccc(CC3CC4(CCN(c5ncc(C(=O)N[C@H]6C(C)(C)[C@H](Oc7ccc(C#N)c(Cl)c7)C6(C)C)cn5)CC4)C3)cc1)=N[C@@H](C)c1nnc(C)n1-2 [Compound I-436] | < 500 | 1500 to 3000 | < 500 |
| Cc1sc2c(c1C)C(c1ccc(OC3CC4(CCN(c5ncc(C(=O)N[C@H]6C(C)(C)[C@H](Oc7ccc(C#N)c(Cl)c7)C6(C)C)cn5)CC4)C3)cc1)=N[C@@H](Cc1ncco1)c1nnc(C)n1-2 [Compound I-49, N-[3-(3-chloro-4-cyano-phenoxy)-2,2,4,4-tetramethyl-cyclobutyl]-2-[2-[4-[(9S)-4,5,13-trimethyl-9-(oxazol-2-ylmethyl)-3-thia-1,8,11,12-tetrazatricyclo[8.3.0.02,6]trideca-2(6),4,7,10,12-pentaen-7-yl]phenoxy]-7-azaspiro[3.5]nonan-7-yl]pyrimidine-5-carboxamide] | < 500 | < 500 | < 500 |
| CCNC(=O)C[C@@H]1N=C(c2ccc(OCCOC3CCN(c4ncc(C(=O)N[C@H]5C(C)(C)[C@H](Oc6ccc(C#N)c(Cl)c6)C5(C)C)cn4)CC3)cc2)c2c(sc(C)c2C)-n2c(C)nnc21 [Compound I-60, N-((1r,3r)-3-(3-chloro-4-cyanophenoxy)-2,2,4,4-tetramethylcyclobutyl)-2-(4-(2-(4-((S)-6-(2-(ethylamino)-2-oxoethyl)-2,3,9-trimethyl-6H-thieno[3,2-f][1,2,4]triazolo[4,3-a][1,4]diazepin-4-yl)phenoxy)ethoxy)piperidin-1-yl)pyrimidine-5-carboxamide] | < 500 | < 500 | 500 to 1500 |
| COCC[C@@H]1N=C(c2ccc(CCCOC3CCN(c4ncc(C(=O)N[C@H]5C(C)(C)[C@H](Oc6ccc(C#N)c(Cl)c6)C5(C)C)cn4)CC3)cc2)c2c(sc(C)c2C)-n2c(C)nnc21 [Compound I-227, N-[3-(3-chloro-4-cyano-phenoxy)-2,2,4,4-tetramethyl-cyclobutyl]-2-[4-[3-[4-[(9S)-9-(2-methoxyethyl)-4,5,13-trimethyl-3-thia-1,8,11,12-tetrazatricyclo[8.3.0.02,6]trideca-2(6),4,7,10,12-pentaen-7-yl]phenyl]propoxy]-1-piperidyl]pyrimidine-5-carboxamide] | < 500 | 500 to 1500 | 500 to 1500 |
| Cc1sc2c(c1C)C(c1ccc(C[C@H]3C[C@@H]([C@@H]4CCCN(c5ncc(C(=O)N[C@H]6C(C)(C)[C@H](Oc7ccc(C#N)c(Cl)c7)C6(C)C)cn5)C4)C3)cc1)=N[C@@H](Cc1ncco1)c1nnc(C)n1-2 [Compound I-161] | < 500 | 500 to 1500 | < 500 |
| CCNC(=O)C[C@@H]1N=C(c2ccc(OC3CCN(C4CCN(c5ncc(C(=O)N[C@H]6C(C)(C)[C@H](Oc7ccc(C#N)c(Cl)c7)C6(C)C)cn5)CC4)C3)cc2)c2c(sc(C)c2C)-n2c(C)nnc21 (stereo partly drawn) [Compound I-85] | < 500 | > 3000 | < 500 |
